Assay results published in US20170290774A1, “NEUROKININ-1 RECEPTOR ANTAGONIST COMPOSITION FOR TREATMENT OF DISEASES AND CONDITIONS OF THE RESPIRATORY TRACT” (PLUS VITECH, S.L., priority 2014, published 2017).

Test: Tissue concentration of aprepitant by HPLC after oral or inhaled administration to rabbits
Format: in vivo, New Zealand albino rabbits
Conditions: for concentration at 7 days: New Zealand White, rabbit, lung, seven days
Method: Herein, New Zealand albino rabbits (New Zealand White Rabbits) with an initial average weight of approximately 3 kg were used. The rabbits were fed ad libitum and were monitored daily to check that signs of toxicity had not appeared. […] This mixture was administered as an aerosol to the airways of a group of 3 of said rabbits (Group 5) in a dose of 0.05 mg/kg body weight per day, to another group of three rabbits (Group 6) in a dose of 0.1 mg/kg body weight per day, to another group of three rabbits (group 7) in a dose of 0.2 mg/kg body weight per day and to another group of three rabbits (Group 8) in a dose of 0.4 mg/kg body weight per day. […] After seven days of treatment all animals were euthanized and necropsied. […] Samples were taken at the peripheral level of the lung parenchyma, just below the pleural surface. Tissue samples were also taken from the nasal cavity, pharynx, larynx and bronchi. […] The average is the arithmetic average calculated for each row or column of each table. The SD is the standard deviation, calculated for each row or column of each table.

- concentration at 7 days (left superior lobe, po, 10 mg/kg/day, Lung concentration of aprepitant LSPI (left superior lobe), Group 1, oral 10 mg/kg per day, individual cases): 500 ng/g
- concentration at 7 days (left superior lobe, po, 10 mg/kg/day, Lung concentration of aprepitant LSPI, Average ± SD of cases, Group 1, oral 10 mg/kg per day): 600 ng/g
- concentration at 7 days (left superior lobe, po, 40 mg/kg/day, Lung concentration of aprepitant LSPI (left superior lobe), Group 2, oral 40 mg/kg per day, individual cases): 5300 ng/g
- concentration at 7 days (left superior lobe, po, 40 mg/kg/day, Lung concentration of aprepitant LSPI, Average ± SD of cases, Group 2, oral 40 mg/kg per day): 4300 ng/g
- concentration at 7 days (left superior lobe, po, 80 mg/kg/day, Lung concentration of aprepitant LSPI (left superior lobe), Group 3, oral 80 mg/kg per day, individual cases): 3900 ng/g
- concentration at 7 days (left superior lobe, po, 80 mg/kg/day, Lung concentration of aprepitant LSPI, Average ± SD of cases, Group 3, oral 80 mg/kg per day): 4700 ng/g
- concentration at 7 days (right inferior lobe, inhaled, 0.4 mg/kg/day, Lung concentration of aprepitant LIPD (right inferior lobe), Group 8, inhalation (aerosol, olive oil) 0.4 mg/kg per day, individual cases): 9900 ng/g
- concentration at 7 days (right inferior lobe, inhaled, 0.4 mg/kg/day, Lung concentration of aprepitant LIPD, Average ± SD of cases, Group 8, inhalation (aerosol, olive oil) 0.4 mg/kg per day): 10100 ng/g
- concentration at 7 days (right inferior lobe, po, 10 mg/kg/day, Lung concentration of aprepitant LIPD (right inferior lobe), Group 1, oral 10 mg/kg per day, individual cases): 600 ng/g
- concentration at 7 days (right inferior lobe, po, 10 mg/kg/day, Lung concentration of aprepitant LIPD, Average ± SD of cases, Group 1, oral 10 mg/kg per day): 800 ng/g
- concentration at 7 days (right inferior lobe, po, 40 mg/kg/day, Lung concentration of aprepitant LIPD (right inferior lobe), Group 2, oral 40 mg/kg per day, individual cases): 3300 ng/g
- concentration at 7 days (right inferior lobe, po, 40 mg/kg/day, Lung concentration of aprepitant LIPD, Average ± SD of cases, Group 2, oral 40 mg/kg per day): 3500 ng/g
- concentration at 7 days (right inferior lobe, po, 80 mg/kg/day, Lung concentration of aprepitant LIPD (right inferior lobe), Group 3, oral 80 mg/kg per day, individual cases): 5100 ng/g
- concentration at 7 days (right inferior lobe, po, 80 mg/kg/day, Lung concentration of aprepitant LIPD, Average ± SD of cases, Group 3, oral 80 mg/kg per day): 5500 ng/g
- concentration at 7 days (right middle lobe, inhaled, 0.4 mg/kg/day, Lung concentration of aprepitant LMPD (right middle lobe), Group 8, inhalation (aerosol, olive oil) 0.4 mg/kg per day, individual cases): 10000 ng/g
- concentration at 7 days (right middle lobe, inhaled, 0.4 mg/kg/day, Lung concentration of aprepitant LMPD, Average ± SD of cases, Group 8, inhalation (aerosol, olive oil) 0.4 mg/kg per day): 10000 ng/g
- concentration at 7 days (right middle lobe, po, 10 mg/kg/day, Lung concentration of aprepitant LMPD (right middle lobe), Group 1, oral 10 mg/kg per day, individual cases): 1100 ng/g
- concentration at 7 days (right middle lobe, po, 10 mg/kg/day, Lung concentration of aprepitant LMPD, Average ± SD of cases, Group 1, oral 10 mg/kg per day): 1300 ng/g
- concentration at 7 days (right middle lobe, po, 40 mg/kg/day, Lung concentration of aprepitant LMPD (right middle lobe), Group 2, oral 40 mg/kg per day, individual cases): 4200 ng/g
- concentration at 7 days (right middle lobe, po, 40 mg/kg/day, Lung concentration of aprepitant LMPD, Average ± SD of cases, Group 2, oral 40 mg/kg per day): 4000 ng/g
- concentration at 7 days (right middle lobe, po, 80 mg/kg/day, Lung concentration of aprepitant LMPD (right middle lobe), Group 3, oral 80 mg/kg per day, individual cases): 4800 ng/g
- concentration at 7 days (right middle lobe, po, 80 mg/kg/day, Lung concentration of aprepitant LMPD, Average ± SD of cases, Group 3, oral 80 mg/kg per day): 5200 ng/g
- concentration at 7 days (right middle lobe, po, 100 mg/kg/day, Lung concentration of aprepitant LMPD (right middle lobe), Group 4, oral 100 mg/kg per day, individual cases): 5800 ng/g
- concentration at 7 days (right superior lobe, inhaled, 0.4 mg/kg/day, Lung concentration of aprepitant LSPD (right superior lobe), Group 8, inhalation (aerosol, olive oil) 0.4 mg/kg per day, individual cases): 10100 ng/g
- concentration at 7 days (right superior lobe, inhaled, 0.4 mg/kg/day, Lung concentration of aprepitant LSPD, Average ± SD of cases, Group 8, inhalation (aerosol, olive oil) 0.4 mg/kg per day): 9900 ng/g
- concentration at 7 days (right superior lobe, po, 10 mg/kg/day, Lung concentration of aprepitant LSPD, Average ± SD of cases, Group 1, oral 10 mg/kg per day): 900 ng/g
- concentration at 7 days (right superior lobe, po, 40 mg/kg/day, Lung concentration of aprepitant LSPD (right superior lobe), Group 2, oral 40 mg/kg per day, individual cases): 3200 ng/g
- concentration at 7 days (right superior lobe, po, 40 mg/kg/day, Lung concentration of aprepitant LSPD, Average ± SD of cases, Group 2, oral 40 mg/kg per day): 3500 ng/g
- concentration at 7 days (right superior lobe, po, 80 mg/kg/day, Lung concentration of aprepitant LSPD (right superior lobe), Group 3, oral 80 mg/kg per day, individual cases): 4900 ng/g
- concentration at 7 days (right superior lobe, po, 80 mg/kg/day, Lung concentration of aprepitant LSPD, Average ± SD of cases, Group 3, oral 80 mg/kg per day): 4100 ng/g
- concentration at 7 days (right superior lobe, po, 100 mg/kg/day, Lung concentration of aprepitant LSPD (right superior lobe), Group 4, oral 100 mg/kg per day, individual cases): 5100 ng/g
Structure (SMILES): C[C@@H](OC1OCCN(Cc2nc(=O)[nH][nH]2)C1c1ccc(F)cc1)c1cc(C(F)(F)F)cc(C(F)(F)F)c1 (stereo in doubt) [Aprepitant, 5-([(2R,3S)-2-((R)-1-[3,5-bis(trifluoromethyl)phenyl]ethoxy)-3-(4-fluorophenyl)morpholino]methyl)-1H-1,2,4-triazol-3(2H)-one]
- relationship between dose and concentration in the lungs (inhalation, 0.05 to 0.4 mg/kg per day): proportional to the dose administered by inhalation
